A short description of data set [1]: log P by HPLC on reversed phase columns (EEC directive 79/831 Annex V.A8). In kind it is physicochemical. The note with it: method [a]: LC-MS at pH 2.7, 0.1% formic acid in water / acetonitrile, gradient 10% to 95% acetonitrile; for chromatographic logP: reversed phase HPLC columns. Here is the method:
Measurement of log P values was performed according EEC directive 79/831 Annex V.A8 by HPLC (High Performance Liquid Chromatography) on reversed phase columns with the following methods: ^[a]Measurement of LC-MS was done at pH 2.7 with 0.1% formic acid in water and with acetonitrile (contains 0.1% formic acid) as eluent with a linear gradient from 10% acetonitrile to 95% acetonitrile. Calibration was done with not branched alkan2-ones (with 3 to 16 carbon atoms) with known log P-values (measurement of log P values using retention times with linear interpolation between successive alkanones). lambda-maX-values were determined using UV-spectra from 200 nm to 400 nm and the peak values of the chromatographic signals.

The test system of data set [2] is Alternaria brassicae. Kind of data set: In vivo preventive test on Alternaria brassicae (leaf spot on radish). The following applies: dose 500 ppm, radish plants, preventive spray, grading 6 days after contamination. The protocol:
Radish plants (“Pernod Clair” variety), sown in starter cups on a 50/50 peat soil-pozzolana substrate and grown at 17° C., are treated at the cotyledon stage by spraying with the active ingredient prepared as described above. Plants, used as controls, are treated with the mixture of acetone/tween/DMSO/water not containing the active material. After 24 hours, the plants are contaminated by spraying the cotyledons with an aqueous suspension of Alternaria brassicae spores (50 000 spores per ml). The spores are collected from a 15-day-old culture. The contaminated radish plants are incubated at 20° C. and at 100% relative humidity. Grading (% of efficacy) is carried out 6 days after the contamination, in comparison with the control plants.

Data set [3] concerns Pyrenophora teres. As to the kind of experiment: In vivo preventive test on Pyrenophora teres (net blotch on barley). The following applies: dose 500 ppm, barley plants, preventive spray, grading 14 days after contamination. The protocol: Barley plants (“Plaisant” variety), sown in starter cups on a 50/50 peat soil-pozzolana substrate and grown at 22° C., are treated at the 1-leaf stage (10 cm height) by spraying with the active ingredient prepared as described above. Plants, used as controls, are treated with the mixture of acetone/tween/DMSO/water not containing the active material. After 24 hours, the plants are contaminated by spraying the leaves with an aqueous suspension of Pyrenophora teres spores (12 000 spores per ml). The spores are collected from a 12-day-old culture. The contaminated barley plants are incubated for 48 hours at 20° C. and at 100% relative humidity, and then for 12 days at 20° C. at 70-80% relative humidity. Grading (% of efficacy) is carried out 14 days after the contamination, in comparison with the control plants.

The test system of data set [4] is Botrytis cinerea. Kind of data set: In vivo preventive test on Botrytis cinerea (grey mould). The following applies: gherkin plants, preventive spray, grading 4 to 5 days after contamination. The protocol:
Gherkin plants (“Vert petit de Paris” variety), sown in starter cups on a 50/50 peat soil-pozzolana substrate and grown at 24° C., are treated at the Z11 cotyledon stage by spraying with the active ingredient prepared as described above. Plants, used as controls, are treated with the mixture of acetone/tween/DMSO/water not containing the active material. After 24 hours, the plants are contaminated by spraying the cotyledons with an aqueous suspension of cryopreserved Botrytis cinerea spores (50 000 spores per ml). The spores are suspended in a nutrient solution composed of 10 g/L of PDB, 50 g/L of D-Fructose, 2 g/L of NH4NO3 and 1 g/L of KH2PO4. The contaminated gherkin plants are incubated at 17° C. and at 90% relative humidity. Grading (% of efficacy) is carried out 4 to 5 days after the contamination, in comparison with the control plants.

Data set [5] concerns Puccinia recondita. As to the kind of experiment: In vivo preventive test on Puccinia recondita (brown rust on wheat). The note with it: wheat plants, preventive spray, grading 12 days after contamination. Here is the method: Wheat plants (“Scipion” variety), sown in starter cups on a 50/50 peat soil-pozzolana substrate and grown at 22° C., are treated at the 1-leaf stage (10 cm height) by spraying with the active ingredient prepared as described above. Plants, used as controls, are treated with the mixture of acetone/tween/DMSO/water not containing the active material. After 24 hours, the plants are contaminated by spraying the leaves with an aqueous suspension of Puccinia recondita spores (100 000 spores per ml). The spores are collected from an infected plant and are suspended in water containing 2.5 ml/l of Tween 80 at 10%. The contaminated wheat plants are incubated for 24 hours at 20° C. and at 100% relative humidity, and then for 10 days at 20° C. and at 70-80% relative humidity. Grading (% of efficacy) is carried out 12 days after the contamination, in comparison with the control plants.

Data set [6] relates to Uromyces appendiculatus. Kind of data set: In vivo preventive test on Uromyces appendiculatus (bean rust). The following applies: dose 500 ppm, bean plants, preventive spray, grading 11 days after contamination. Here is the method:
The active ingredients tested are prepared by homogenization in a mixture of acetone/tween/DMSO, and then diluted with water to obtain the desired active material concentration.
Bean plants (“Saxa” variety), sown in starter cups on a 50/50 peat soil-pozzolana substrate and grown at 24° C., are treated at the 2-leaf stage (9 cm height) by spraying with the active ingredient prepared as described above. Plants, used as controls, are treated with the mixture of acetone/tween/DMSO/water not containing the active material.
After 24 hours, the plants are contaminated by spraying the leaves with an aqueous suspension of Uromyces appendiculatus spores (150 000 spores per ml). The spores are collected from infected plants and are suspended in water containing 2.5 ml/l of Tween 80 at 10%. The contaminated bean plants are incubated for 24 hours at 20° C. and at 100% relative humidity, and then for 10 days at 20° C. and at 70-80% relative humidity.
Grading (% of efficacy) is carried out 11 days after the contamination, in comparison with the control plants.

Data set [7] relates to Sphaerotheca fuliginea. Kind of data set: In vivo preventive test on Sphaerotheca fuliginea (powdery mildew on cucurbits). The following applies: dose 100 ppm, gherkin plants, preventive spray, grading 12 days after contamination. Here is the method:
Gherkin plants (“Vert petit de Paris” variety), sown in starter cups on a 50/50 peat soil-pozzolana substrate and grown at 24° C., are treated at the Z11 cotyledon stage by spraying with the active ingredient prepared as described above. Plants, used as controls, are treated with the mixture of acetone/tween/DMSO/water not containing the active material. After 24 hours, the plants are contaminated by spraying the cotyledons with an aqueous suspension of Sphaerotheca fuliginea spores (100 000 spores per ml). The spores are collected from infected plants. The contaminated gherkin plants are incubated at about 20° C. and at 70-80% relative humidity. Grading (% of efficacy) is carried out 12 days after the contamination, in comparison with the control plants.

For data set [8], the system named is Septoria tritici. Kind of data set: In vivo preventive test on Septoria tritici (leaf spot on wheat). The note with it: dose 100 ppm, wheat plants, preventive spray, grading 24 days after contamination. The protocol:
Wheat plants (“Scipion” variety), sown in starter cups on a 50/50 peat soil-pozzolana substrate and grown at 22° C., are treated at the 1-leaf stage (10 cm height) by spraying with the active ingredient prepared as described above. Plants, used as controls, are treated with the mixture of acetone/tween/DMSO/water not containing the active material. After 24 hours, the plants are contaminated by spraying the leaves with an aqueous suspension of cryopreserved Septoria tritici spores (500 000 spores per ml). The contaminated wheat plants are incubated for 72 hours at 18° C. and at 100% relative humidity, and then for 21 days at 90% relative humidity. Grading (% of efficacy) is carried out 24 days after the contamination, in comparison with the control plants.

A word on the chromatographic logP: it is a lipophilicity value derived from retention on a column. A high value points to a more lipophilic compound.

For `CC1CCc2c(NC(=O)c3cccnc3C(F)F)cccc2C1C` (mixture of isomers) [Example 6], the logP in data set [1] is 3.24^[a].

Take `CC1(C)CCc2cccc(NC(=O)c3cccnc3C(F)F)c2C1` [Example 1, 2-(difluoromethyl)-N-(7,7-dimethyl-5,6,7,8-tetrahydronaphthalen-1-yl)nicotinamide]: in data set [1], the chromatographic logP is 3.23.

`CC1c2cccc(NC(=O)c3cccnc3C(F)F)c2CCC1(C)C` (stereo not shown) [Example 2]: in data set [1], the logP is 3.55^[a].

As to `CC1CCC(C)(C)c2cccc(NC(=O)c3cccnc3C(F)F)c21` (stereo not shown) [Example 3], the logP in data set [1] is 3.37^[a].

For `C=C1c2cccc(NC(=O)c3cccnc3C(F)F)c2CCC1(C)C` [Example 4], the logP in data set [1] was 3.33^[a]. In data set [2], this compound displayed a biological efficacy not below 70%.

As for `CC1(C)CCc2c(NC(=O)c3cccnc3C(F)F)cccc2C1=O` [Example 5], in data set [1], the logP was 2.28^[a]. The biological efficacy in data set [3] is listed as not below 70%.

In the case of `Cc1cnc(C(F)F)c(C(=O)Nc2cccc3c2CCC(C)(C)C3)c1` [Example 7, 2-(difluoromethyl)-N-(6,6-dimethyl-5,6,7,8-tetrahydronaphthalen-1-yl)-5-methylnicotinamide], in data set [1], the chromatographic logP stood at 3.52.

Regarding `CON=C1CCCc2c(NC(=O)c3cc(C)cnc3C(F)F)cccc21` [Example 8], the logP in data set [1] is 2.75^[a].

Consider `CON=C1CCCc2c(NC(=O)c3cccnc3C(F)F)cccc21` [Example 9], for which, in data set [1], the logP is 2.49^[a]. Besides, the biological efficacy in data set [2] is not below 90%; in data set [4] (dose 500 ppm) it was not below 70%; in data set [5] (dose 500 ppm), not below 70%; in data set [6], not below 70%.

As to `Cc1cnc(C(F)F)c(C(=O)Nc2ccc(F)c3c2CCCC3(C)C)c1` [Example 10], the logP in data set [1] is 3.57^[a].

For the compound `CC1(C)CCCc2c(NC(=O)c3ccc(Cl)nc3C(F)F)ccc(F)c21` [Example 11], in data set [1], the logP was 3.94^[a].

As for `CC1(C)CCCc2c(NC(=O)c3cccnc3C(F)F)ccc(F)c21` [Example 12], in data set [1], the logP was 3.29^[a].

`CCON=C1CCCc2c(NC(=O)c3cc(C)cnc3C(F)F)cccc21` [Example 13]: the logP in data set [1] is 3.19^[a].

In the case of `CC1(C)CCc2c(cccc2NC(=O)c2cccnc2C(F)F)C1` [Example 14], the logP in data set [1] was 3.23^[a].

As for `CC1(C)CCCc2c(NC(=S)c3cccnc3C(F)F)ccc(F)c21` [Example 15], in data set [1], the logP is 3.79^[a].

Take `CCON=C1CCCc2c(NC(=O)c3cccnc3C(F)F)cccc21` [Example 16]: the logP in data set [1] was 2.90^[a].

With `Cc1cnc(C(F)F)c(C(=S)Nc2cccc3c2CCC(C)(C)C3)c1` [Example 17, 2-(difluoromethyl)-N-(6,6-dimethyl-5,6,7,8-tetrahydronaphthalen-1-yl)-5-methylpyridine-3-carbothioamide], in data set [1], the chromatographic logP worked out at 3.94.

On to `CC(C)C1CCCc2c(NC(=O)c3cccnc3C(F)F)cccc21` (stereo not shown) [Example 18], for which, in data set [1], the logP is 3.60^[a]. Further, the biological efficacy in data set [4] (dose 100 ppm) was not below 90%; in data set [5] (dose 100 ppm), not below 90%; in data set [7], not below 80%.

As to `CC(C)C1CCCc2c(NC(=O)c3ccc(Cl)nc3C(F)F)cccc21` (stereo not shown) [Example 19], the logP in data set [1] was 4.31^[a]. Further, the biological efficacy in data set [5] (dose 100 ppm) and in data set [8] was not below 70% in each case.

For `Cc1cnc(C(F)F)c(C(=O)Nc2cccc3c2CCCC3(C)C)c1` [Example 20], the logP in data set [1] was 3.46^[a].
